Experimental data: patent publication US6444872B1, “Large animal model of invasive pulmonary aspergillosis in an immunocompromised host” (priority 1999, dated 2002)

Experiments:
[1] = human, in vivo; cited from earlier work
[2] = in vivo; cited from earlier work
Aspergillus fumigatus = experiment: Beagle model of invasive pulmonary aspergillosis in an immunocompromised host (TBI + steroids, bronchoscopic spore inoculation); assay type: in vivo
Excerpt: 1. The “Right” Animal: While choosing an animal the inventors had to consider that a human/clinical mold infection, such as an Aspergillus infection, usually begins as a localized infection and not as a widespread and diffuse pulmonary infection. To be able to reproducibly inoculate a specified dose of an infectious agent in a limited, defined part of the airways the inventors must have easy access to a particular part of the pulmonary tree. This meant that a large animal, such as dog, pig, sheep or monkey, rather than a rodent or lagomorph should be considered. The beagle, which is accepted by both the NCI and the FDA for safety studies of pharmaceutically active agents prior to entering clinical trials, was favored. This dog is easily accessible from several commercial breeders, and in addition to the selected experimental dogs one could conveniently house extra animal's for donation of both platelets and red cells to be transfused as needed during the supportive care phase of the experiments, i.e. after the mold administration.
2. Immunosuppression: For immunosuppression the inventors chose total body irradiation (TBI) with an X-ray (Cobalt) (XRT) source, administered with the animal under general anesthesia in a specially constructed box to obtain uniform radiation exposure. […] Further, the XRT dose can be calculated such that it gives a window of fairly deep immunosuppression sustained for 3-5 weeks, which should be sufficient for the intended purpose. The XRT was followed with daily oral prednisolone administration to further suppress T-lymphocyte and macrophage function and enhance spreading the infection.
3. Mold Species: More than 90% of human clinical Aspergillus infections are a result of Aspergillus fumigatus infection.
4. Mold Dose: To standardize the mold dosage, the inventors prepared batches of Aspergillus spores that were mixed in agarose and stirred down vigorously in mineral oil to obtain a suspension of spores encapsulated in small agarose beads (the approximate average bead diameter was 20 μm). After washing the beads in 0.5% deoxycholate, they were mixed with glycerol prior to cryopreservation and storage at −70° C. The use of agar beads and other encapsulation methods are also contemplated.
5. Mold Administration: The human clinical infection usually starts as a localized airway infection either in the sinuses or in a part of one lung, and not as a generalized pulmonary infection. The inventors decided to utilize a pediatric bronchoscope to safely and reproducibly introduce the Aspergillus spores in the intermediary (lower) right lung lobe. After standardization of the dose, 1×10^6 spores encapsulated in agarose beads and resuspended in NS were infused at each occasion.
6. Time of Mold Administration: In most human patients, Aspergillus infections occur at a time of leukopenia and profound immunosuppression. The time to develop leukopenia after TBI was very reproducible in the beagles. At day 10-14 days after XRT, when the animal's absolute white blood cell count falls below about 500 per μL (neutrophil count <400 per μL), the mold spore administration was performed. The WBC remain at about <500 per μL till day 25-30 after TBI, at which time the count recovered fairly rapidly in animal's that had not been inoculated with Aspergillus spores, or in beagles who had been inoculated with a dose that was too low to yield progressive infection.
7. Supportive Care: The first few animal's died from a superimposed secondary bacterial infection rather than from the mold infection itself In addition, there were bleeding complications when the dogs' platelet count fell below 10,000 per μL. The inventors therefore decided to utilize prophylactic oral (broad-spectrum) antibiotics and “prophylactic” platelet transfusions. […]

[3] = the two dogs that rejected the infection

C[C@@H]1[C@H](O)[C@@H](C)/C=C/C=C/C=C/C=C/C=C/C=C/C=C/[C@H](O[C@@H]2O[C@H](C)[C@@H](O)[C@H](N)[C@@H]2O)C[C@@H]2O[C@](O)(C[C@@H](O)C[C@@H](O)[C@H](O)CC[C@@H](O)C[C@@H](O)CC(=O)O[C@H]1C)C[C@H](O)[C@H]2C(=O)O [AMB, Amphotericin B]
cases with nephrotoxicity [1]: > 75%

CC[C@]1(O)C[C@@H]2CN(CCc3c([nH]c4ccccc34)[C@@](C(=O)OC)(c3cc4c(cc3OC)N(C)[C@H]3[C@@](O)(C(=O)OC)[C@H](OC(C)=O)[C@]5(CC)C=CCN6CC[C@]43[C@@H]65)C2)C1 [Vinblastine]
administered dose recovered in the feces after biliary excretion [2]: about 10% | dose excreted intact into the urine [2]: Approximately 15%

C[C@@H]1C/C=C/C=C/C=C/C=C/[C@H](O[C@@H]2O[C@H](C)[C@@H](O)[C@H](N)[C@@H]2O)C[C@@H]2O[C@](O)(C[C@@H](O)C[C@H]3O[C@@H]3/C=C/C(=O)O1)C[C@H](O)[C@H]2C(=O)O [Natamycin]
outcome of infection (Aspergillus fumigatus; after a 16-day cycle of daily Natamycin treatments): two animal's rejected the infection | life span after fungal inoculation (Aspergillus fumigatus; one animal, expected life span nine days, daily intravenous Natamycin): 17 days | Pneumonia (Aspergillus fumigatus; single dog, 1 x 10^6 spores, TBI 3.0 Gy, steroid 30/10 mg, platelet/antibiotic support): Yes | Complications (outcome) (Aspergillus fumigatus; single dog, survived pneumonia 4 weeks post therapy): Dog survived | necropsy finding (Aspergillus fumigatus; [3]): only signs of healing | time free from resurgence of the mold infection post completion of drug treatment (Aspergillus fumigatus; [3]): one | extended life as compared to untreated animals (Aspergillus fumigatus; therapy instituted a day after Aspergillus inoculum, last 3 beagles, 3.0 Gy TBI): Natamycin extended life by 80% as compared to untreated animals
